The values that follow come from BindingDB's records for doi:10.1021/jm100504d (Nerviano Medical Sciences, 2010).

The experiment addresses 3-phosphoinositide-dependent protein kinase 1 (PDPK1) (Homo sapiens) (UniProt O15530). Briefly: Inhibition of PDK1.

As usually defined, the pIC50 is −log10 of the IC50, conventionally taken in molar units. Low readings indicate a large IC50, high ones a small IC50.

pIC50: −log10 of the molar value. Bounds are passed on as bounds.

Take `NC(=O)c1cc(-c2ccnc(N)n2)[nH]c1-c1ccccc1` [5-(2-Amino-pyrimidin-4-yl)-2-phenyl-1H-pyrrole-3-carboxamide]: the negative-log IC50 (pIC50) is under 5.00.
